Like-named read-outs stand apart in the source and are kept apart here.
What was measured:
intact cells = details: cited from earlier work; for Retention / pH sensitivity / Loading: in words
nucleic acids = experiment: Excitation/emission maxima of dyes complexed with nucleic acids; format: physicochemical; set-up: key: wavelength in nm; details: Table 2; dye complexed with nucleic acids
From the text: Dye I is lightly colored and is virtually non-fluorescent when diluted in aqueous solution according to the method of the invention. Dye I is highly membrane-permeant and labels all cells, whether live or dead. When Dye I binds with intracellular nucleic acid polymers such as DNA and RNA, the resultant dye-nucleic acid complex becomes extremely fluorescent upon illumination. The quantum yield of the preferred Dye I/DNA complex is greater than 0.02, typically greater than 0.1, preferably greater than 0.2, and more preferably greater than 0.3. Typically, Dye I combines with intracellular nucleic acids to give a green or red fluorescence. When excited at a wavelength between about 300 nm and about 500 nm, the dyes complexed with nucleic acids have an emission maximum between about 500 and about 610 nm (see Table 2). Preferably, Dye I complexed with nucleic acids has an emission maximum of between about 500 nm and about 535 nm, resulting in a true green fluorescent signal in cells of the sample where Dye I is present alone.

S. sonnei = experiment: Fluorescence per cell, stained bacteria (microtiter plate reader); format: cell-based, Shigella sonnei; details: optimal dye concentration, corrected for cell number
Method: (§1) 1. Measured in a fluorescence microtiter plate reader with extraction and
(§2) emission filters at 485+/-10 and 530+/-12, respectively. Fluorescence dat
(§3) are corrected for cell number; but are not corrected for cell volume or
(§4) 2. Optimal dye concentrations determined as in Example 3.
(§5) 3. Suspension concentrations as used for Example 3.
(§6) A culture of E. coli is washed by centrifugation and resuspended in water to its original volume. Using Corning 96-well microtiter plates with flat bottoms, 150 μL volumes of suspension are loaded per well. A single well of sterile water is the well background standard. Using a Dynatech MR600 microplate reader equipped with a 410 nm filter, absorbance is determined for the initial volumes of suspension. The suspension is diluted seven times by serial ten-fold dilutions in water, 150 μL of suspension per well, and the absorbance measured for each dilution. Following the absorbance measurements, each dilution loaded into wells is further diluted 1:10 and plated in duplicate on nutrient growth agar. The colonies are counted and expressed as colony forming units per milliliter (cfu/mL). Using the turbidity of the dilution in the microtiter plate, the suspension is diluted to a density of about 1×10^9 cfu/mL.
(§7) The bacteria suspension, adjusted to a known density as described above, is diluted seven times by serial ten-fold dilutions in water; 150 μL of suspension per well. Three-fold serial dilutions of dye are used (30-0.04 μM); 50 μL of dye at 4× final concentration. Using Corning 96-well microtiter flat-bottom plates, a matrix is set up whereby the cell concentration decreases across the plate and the dye concentration decreases down the plate, final volume per well is 200 μL. The top row and first column are reserved for the control, sterile water. The plate is incubated at 37° C. for 30 minutes, then read in a Millipore Cytofluor™ 2350 96-well fluorescence microplate reader at a fixed excitation of 485+/-10 nm and each of three emission wavelengths, 530+/-12, 620+/-20, or 645+/-20 nm. The results determine the best dye range (30-1 μM) and the best cell concentrations (concentrated through first three ten-fold dilutions) for optimal dye loading. […] Using the four dye dilutions and the four bacterial dilutions, many bacteria and dyes can be assayed quickly. The data collected allow the determination of optimal dye and cell concentration required for maximal fluorescence intensity per cell.

P. aeruginosa = experiment: as above; format: cell-based, Pseudomonas aeruginosa; details: optimal dye concentration, corrected for cell number
Method: as §1, §2, §3, §4, §5, §6, §7

B. cereus = experiment: as above; format: cell-based, Bacillus cereus; details: optimal dye concentration, corrected for cell number
Method: as §1, §2, §3, §4, §5, §6, §7

S. oranienburg = experiment: as above; format: cell-based, Salmonella oranienburg; details: optimal dye concentration, corrected for cell number
Method: as §1, §2, §3, §4, §5, §6, §7

K. pneumonia = experiment: as above; format: cell-based, Klebsiella pneumonia; details: optimal dye concentration, corrected for cell number
Method: as §1, §2, §3, §4, §5, §6, §7

E. coli = experiment: as above; format: cell-based, Escherichia coli; details: for Fluorescence/Cell (ex 485/em 530): E. coli, optimal dye concentration, corrected for cell number; for Normalized Fluorescence/cell (ex 485 nm/em 530 nm), Escherichia coli: scaled to thiazole orange
From the text: as §1, §2, §3, §4, §5
(§8) Factors such as degree of fluorescence enhancement with nucleic acid binding, self quenching, molar extinction coefficient, membrane permeability, intracellular partitioning, nucleic acid binding affinity, and quantum yield contribute to the overall fluorescence of nucleic acid stains in cells. Enhanced cell fluorescence obtained with Dye I is related to unexpected properties other than quantum yield alone. Quantum yield is determined as described above (foot note to Table 2). Normalized quantum yield is determined to illustrate the fold-change in quantum yield of Dye I compared with thiazole orange, a related cell-permeant dye. The normalized fluorescence values represent the quantum yield of each dye divided by the quantum yield of thiazole orange. Fluorescence per cell is also scaled to thiazole orange values for both E. coli and S. aureus to allow direct comparison between relative (normalized) quantum yield and relative (normalized) fluorescence/cell.
as §6, §7

S. pyogenes = experiment: as above; format: cell-based, Streptococcus pyogenes; details: optimal dye concentration, corrected for cell number
Method: as §1, §2, §3, §4, §5, §6, §7

M. luteus = experiment: as above; format: cell-based, Micrococcus luteus; details: optimal dye concentration, corrected for cell number
Method: as §1, §2, §3, §4, §5, §6, §7

DNA = experiment: Quantum yield of dye on DNA versus fluorescein; format: physicochemical; details: for Normalized QY: QY divided by QY of thiazole orange; for QY (DNA): Table 2, Tris buffered saline pH 10, fluorescein assumed 0.92; for QY: Table 7, on DNA, fluorescein reference
From the text: ^ Quantum yield (QY) of dye on DNA (standard solution in Tris buffere
saline adjusted to pH 10) in comparison with fluorescein, which is assume
to have a quantum yield of 0.92 under the test conditions.
as §8

S. aureus = experiment: Fluorescence per cell, stained bacteria (microtiter plate reader); format: cell-based, Staphylococcus aureus; details: for Fluorescence/Cell (ex 485/em 530): S. aureus, optimal dye concentration, corrected for cell number; for Normalized Fluorescence/cell (ex 485 nm/em 530 nm), Staphylococcus aureus: scaled to thiazole orange
From the text: as §1, §2, §3, §4, §5, §8, §6, §7

Molecule	Retention (intact cells)	Loading (intact cells)	EM max (nucleic acids)	EX max (nucleic acids)	Fluorescence/Cell (ex 485/em 530) (S. sonnei)	Fluorescence/Cell (ex 485/em 530) (P. aeruginosa)	Fluorescence/Cell (ex 485/em 530) (B. cereus)	Fluorescence/Cell (ex 485/em 530) (S. oranienburg)	Fluorescence/Cell (ex 485/em 530) (K. pneumonia)	Fluorescence/Cell (ex 485/em 530) (E. coli)	Normalized Fluorescence/cell (ex 485 nm/em 530 nm), Escherichia coli (E. coli)	Fluorescence/Cell (ex 485/em 530) (S. pyogenes)	Fluorescence/Cell (ex 485/em 530) (M. luteus)	Normalized QY (DNA)	QY (DNA) (DNA)	QY (DNA)	Fluorescence/Cell (ex 485/em 530) (S. aureus)	Normalized Fluorescence/cell (ex 485 nm/em 530 nm), Staphylococcus aureus (S. aureus)	further results
O=C(O)c1ccccc1C1c2cc(Cl)c(O)cc2Oc2cc(O)c(Cl)cc21 [H2 DCF]	poor retention																		pH sensitivity (intact cells): pH-insensitive
Carboxycalcein Blue AM		Easily loaded																	T1/2 (time for half of dye to leak from intact cells) (intact cells; "probably", temperature not stated): < 60 min
C[n+]1c(C=C2C=C(Cl)N(c3ccccc3)c3ccccc32)sc2ccccc21 [compound 591]			532	509	1	1	58	2	2	2	1	< 0.01	375	0.5	0.09	0.09	3	0.9	
CC(=O)OCOC(=O)c1ccc2c(c1)C(=O)OC21c2ccc(OC(C)=O)cc2Oc2cc(OC(C)=O)ccc21 [5-Carboxyfluorescein diacetate AM]	Moderate	readily loaded																	T1/2 (time for half of dye to leak from intact cells) (intact cells; 37° C.): < 30 min
COC1=CC(=Cc2sc3ccccc3[n+]2C)c2ccccc2N1c1ccccc1 [compound 628]			506	488	16	14	613	19	20	28	14	0.04	149	2.2	0.40	0.40	34	10.6	
C[n+]1c(C=C2C=CN(c3ccccc3)c3ccccc32)sc2ccccc21 [dye 63]			531	514	3	3	93	4	5	6	3	0.01	33	1.3	0.24	0.24	5	1.6	
Carboxynaphtho-fluorescein diacetate																			pH sensitivity (intact cells): sensitive
CC(=O)Oc1ccc2c(c1)Oc1cc(OC(C)=O)ccc1C21OC(=O)c2ccccc21 [Fluorescein diacetate]	poorly retained	Easily loaded																	T1/2 (time for half of dye to leak from intact cells) (intact cells; 37° C.): < 10 min
